Measurements taken from patent publication US20250152734A1, “USES AND FORMULATIONS OF CAMPTOTHECIN (CPT)-CONTAINING NANOPARTICLES” (DANTARI, INC., priority 2022, published 2025).

Experiment: Tolerability of CPT in 3-week mouse xenograft studies (ER2019-09-1B, ER2019-09-1C)
Assay type: in vivo
Experimental: This value is determined from the calculated free and total CPT concentrations in the sample. The “% free of total CPT” value provides the clearest indicator of drug substance stability during storage and use. […] The release specification for % free of total CPT in the drug substance is ≤3%. The stability specification for % free of total CPT in the drug substance is ≤5%. These limits are well below prior studies using CPT administered directly as a free drug. In two separate 3-week mouse xenograft studies (ER2019-09-1B, ER2019-09-1C) CPT itself was dosed and well-tolerated at 3 mg/kg which has a human equivalent dose of 9 mg CPT/m2.

Question: Which well-tolerated dose (3-week mouse xenograft studies) does the source give for `CC[C@@]1(O)C(=O)OCc2c1cc1n(c2=O)Cc2cc3ccccc3nc2-1` [CPT, 20 (S)-camptothecin] here?
Answer: The well-tolerated dose was 3 mg/kg.

Question: And the “human equivalent dose of tolerated dose” value (mouse, in vivo)?
Answer: Its value is 9 mg CPT/m2.
